≈ marks a conversion by molar mass, not a printed value. Like-named read-outs stand apart in the source and are kept apart here.
Assays:
Strep. faecalis = assay: Antibacterial activity against Gram-positive organisms (MIC); type: cell-based; settings: Enterococcus faecalis
Staph. aureus Oxford = assay: as above; type: cell-based; settings: Staphylococcus aureus
Oxford Staph. = assay: MIC by serial dilution in 10% horse blood agar (Table 2); type: cell-based; settings: 24 hours at 37° C.
Description: (§1) *Serial dilution in 10% horse blood agar. Incubated in a partial atmosphere of CO2 for 24 hours at 37° C. Inoculated with one drop (0.001ml) of an overnight cell suspension.

N.gonorrhoeae = assay: Activity against N.gonorrhoeae, MIC by serial dilution in 10% horse blood agar; type: cell-based; settings: Neisseria gonorrhoeae, 24 h
Description: as §1

Staph. aureus 1517 = assay: Antibacterial activity against Gram-positive organisms (MIC); type: cell-based; settings: Staphylococcus aureus
B. Subtilis = assay: as above; type: cell-based; settings: Bacillus subtilis
Staph. aureus Russell = assay: as above; type: cell-based; settings: Staphylococcus aureus
[1] = tested on: mycoplasmas from human and veterinary sources; assay: Antimycoplasmal activity in vitro (summary); type: cell-based, mycoplasma; settings: in words
Description: (§2) The method used to test for antimycoplasmal activity was as follows:
(§3) The minimal inhibitory concentration (MIC) of the pseudomonic acid amides was determined in Microtitre plates, by a modification of the metabolic-inhibition test (Taylor-Robinson, 1967). The compounds were serially diluted in sterile de-ionised water to give a range of concentrations from 250-0.5 μg/ml. Mycoplasma broth containing 1% (w/v) of glucose and 0.005% (w/v) of phenol red, was added at a strength to compensate for its dilution by the aqueous drug solution. Approximately 10^4 colony forming units of mycoplasma were added to each concentration of drug. Drug-free infected, non-infected and pH control wells were included on each plate. Plates were sealed with cellophane tape and incubated at 37° C. for 7 days. The MIC was the lowest concentration of compound that prevented a colour change in the mycoplasma broth caused by the metabolism of glucose by the mycoplasmas.

M. dispar H 225 = assay: Antimycoplasmal MIC, metabolic-inhibition test in Microtitre plates; type: cell-based; settings: 168 h; M. dispar H 225, source cattle; 37° C. for 7 days
Description: as §2, §3

M. fermentans MWKL4 = assay: as above; type: cell-based; settings: Mycoplasmopsis fermentans, 168 h; M. fermentans MWKL4, source man; 37° C. for 7 days
Description: as §2, §3

M. suipneumoniae (Laber) = assay: as above; type: cell-based; settings: Mesomycoplasma hyopneumoniae, 168 h, source pig, 37° C. for 7 days
Description: as §2, §3

M. synoviae ATCC 25204 = assay: as above; type: cell-based; settings: Mycoplasmopsis synoviae, ATCC25204, 168 h; M. synoviae ATCC 25204, source chicken; 37° C. for 7 days
Description: as §2, §3

M. agalactiae ATCC 25025 = assay: as above; type: cell-based; settings: Mycoplasmopsis agalactiae, ATCC25025, 168 h; M. agalactiae ATCC 25025, source cattle; 37° C. for 7 days
Description: as §2, §3

M. pulmonis `JB` = assay: as above; type: cell-based; settings: Mycoplasmopsis pulmonis, 168 h, source mouse, 37° C. for 7 days
Description: as §2, §3

M. gallisepticum S6 = assay: as above; type: cell-based; settings: Mycoplasmoides gallisepticum, 168 h; M. gallisepticum S6, source chicken; 37° C. for 7 days
Description: as §2, §3

M. pneumoniae 429 a = assay: as above; type: cell-based; settings: Mycoplasmoides pneumoniae, 168 h, source man, 37° C. for 7 days
Description: as §2, §3

β-Haemolytic Strep. CN10 = assay: Antibacterial activity against Gram-positive organisms (MIC); type: cell-based
[2] = Serum binding by ultrafiltration, filtrate assayed by hole-in-plate method; type: in vitro ADME
Description: The degree of binding to human serum of the compounds of Examples 1 and 2 compared with that of pseudomonic acid was determined by the following procedure:
Test samples were mixed with human serum and placed in visking tubing. Serum binding was determined by ultrafiltration, the filtrate obtained being assayed by a hole-in-plate method using Bacillus subtilis ATCC 6633 against standards prepared in 0.05M pH7.0 phosphate buffer.

[3] = strain 69, 24 hours at 37° C., read-out: M.I.C.
[4] = strain 70, 24 hours at 37° C., read-out: M.I.C.
[5] = strain 77, 24 hours at 37° C., read-out: M.I.C.
[6] = strain 82, 24 hours at 37° C., read-out: M.I.C.
[7] = strain 87, 24 hours at 37° C., read-out: M.I.C.
[8] = strain 2176, 24 hours at 37° C., read-out: M.I.C.
[9] = strain AR 229, 24 hours at 37° C., read-out: M.I.C.
[10] = strain H2057, 24 hours at 37° C., read-out: M.I.C.
[11] = strain VD 79, 24 hours at 37° C., read-out: M.I.C.
[12] = strain VDRL 67, 24 hours at 37° C., read-out: M.I.C.
[13] = strain WHO VII, 24 hours at 37° C., read-out: M.I.C.

Compound | MIC (Strep. faecalis) | MIC (Staph. aureus Oxford) | MIC (Oxford Staph.) | MIC (N.gonorrhoeae; [3]) | MIC (N.gonorrhoeae; [4]) | MIC (N.gonorrhoeae; [5]) | MIC (N.gonorrhoeae; [6]) | MIC (N.gonorrhoeae; [7]) | MIC (N.gonorrhoeae; [8]) | MIC (N.gonorrhoeae; [9]) | MIC (N.gonorrhoeae; [10]) | MIC (N.gonorrhoeae; [11]) | MIC (N.gonorrhoeae; [12]) | MIC (N.gonorrhoeae; [13]) | MIC (Staph. aureus 1517) | MIC (B. Subtilis) | MIC (Staph. aureus Russell) | antimycoplasmal activity in vitro [1] | MIC (M. dispar H 225) | MIC (M. fermentans MWKL4) | further results
CNC(=O)CCCCCCCCOC(=O)/C=C(\C)CC1OCC(CC2OC2C(C)C(C)O)C(O)C1O (stereo not drawn) [Example 1, Pseudomonic acid N-methylamide] | 125 µg/mL (≈ 243 µM) | 0.5 µg/mL (≈ 0.973 µM) | 0.05 µg/mL (≈ 0.0973 µM) | 0.002 µg/mL (≈ 0.00389 µM) | 0.005 µg/mL (≈ 0.00973 µM) | 0.005 µg/mL (≈ 0.00973 µM) | 0.05 µg/mL (≈ 0.0973 µM) | 0.01 µg/mL (≈ 0.0195 µM) | 0.02 µg/mL (≈ 0.0389 µM) | 0.05 µg/mL (≈ 0.0973 µM) | 0.005 µg/mL (≈ 0.00973 µM) | 0.02 µg/mL (≈ 0.0389 µM) | 0.002 µg/mL (≈ 0.00389 µM) | 0.005 µg/mL (≈ 0.00973 µM) | 1.25 µg/mL (≈ 2.43 µM) | 0.25 µg/mL (≈ 0.487 µM) | 1.25 µg/mL (≈ 2.43 µM) |  |  |  | 
C/C(=C\C(=O)OCCCCCCCCC(=O)N(C)C)CC1OCC(CC2OC2C(C)C(C)O)C(O)C1O (stereo not drawn) [Example 3, Pseudomonic acid N,N-dimethylamide] |  |  |  |  |  |  |  |  |  |  |  |  |  |  |  |  |  | good antimycoplasmal activity | < 0.5 µg/mL | < 0.5 µg/mL | MIC (M. suipneumoniae (Laber)): 3.9 µg/mL (≈ 7.39 µM); MIC (M. synoviae ATCC 25204): < 0.5 µg/mL; MIC (M. agalactiae ATCC 25025): < 0.5 µg/mL; MIC (M. pulmonis `JB`): < 0.5 µg/mL; MIC (M. gallisepticum S6): < 0.5 µg/mL; MIC (M. pneumoniae 429 a): 250 µg/mL (≈ 474 µM)
CC1(C)S[C@@H]2[C@H](NC(=O)Cc3ccccc3)C(=O)N2[C@H]1C(=O)O [Benzyl Penicillin, benzylpenicillin, reference compound] |  |  | 0.02 µg/mL (≈ 0.0598 µM) |  |  |  |  |  |  |  |  |  |  |  |  |  |  |  |  |  | MIC (N.gonorrhoeae; strain 69, 24 hours at 37° C.): 0.1 µg/mL (≈ 0.299 µM); MIC (N.gonorrhoeae; strain 70, 24 hours at 37° C.): 0.1 µg/mL (≈ 0.299 µM); MIC (N.gonorrhoeae; strain 72, 24 hours at 37° C.): 0.2 µg/mL (≈ 0.598 µM); MIC (N.gonorrhoeae; strain 77, 24 hours at 37° C.): 0.1 µg/mL (≈ 0.299 µM); MIC (N.gonorrhoeae; strain 82, 24 hours at 37° C.): 0.5 µg/mL (≈ 1.5 µM); MIC (N.gonorrhoeae; strain 87, 24 hours at 37° C.): 0.01 µg/mL (≈ 0.0299 µM); MIC (N.gonorrhoeae; strain 2176, 24 hours at 37° C.): 0.2 µg/mL (≈ 0.598 µM); MIC (N.gonorrhoeae; strain AR 229, 24 hours at 37° C.): 1 µg/mL (≈ 2.99 µM); MIC (N.gonorrhoeae; strain H2057, 24 hours at 37° C.): 0.005 µg/mL (≈ 0.015 µM); MIC (N.gonorrhoeae; strain VD 79, 24 hours at 37° C.): 0.2 µg/mL (≈ 0.598 µM); MIC (N.gonorrhoeae; strain VDRL 67, 24 hours at 37° C.): 0.05 µg/mL (≈ 0.15 µM); MIC (N.gonorrhoeae; strain WHO VII, 24 hours at 37° C.): 0.005 µg/mL (≈ 0.015 µM)
C/C(=C\C(=O)OCCCCCCCCC(N)=O)CC1OCC(CC2OC2C(C)C(C)O)C(O)C1O (stereo not drawn) [Example 2, Pseudomonic Acid Amide] | 100 µg/mL (≈ 200 µM) | 0.5 µg/mL (≈ 1 µM) | 0.05 µg/mL (≈ 0.1 µM) | 0.002 µg/mL (≈ 0.004 µM) | 0.005 µg/mL (≈ 0.01 µM) | 0.02 µg/mL (≈ 0.04 µM) | 0.05 µg/mL (≈ 0.1 µM) | 0.005 µg/mL (≈ 0.01 µM) | 0.02 µg/mL (≈ 0.04 µM) | 0.05 µg/mL (≈ 0.1 µM) | 0.005 µg/mL (≈ 0.01 µM) | 0.02 µg/mL (≈ 0.04 µM) | 0.002 µg/mL (≈ 0.004 µM) | 0.002 µg/mL (≈ 0.004 µM) | 2.5 µg/mL (≈ 5 µM) | 0.25 µg/mL (≈ 0.5 µM) | 1 µg/mL (≈ 2 µM) | good antimycoplasmal activity | < 0.5 µg/mL | < 0.5 µg/mL | MIC (β-Haemolytic Strep. CN10): 0.1 µg/mL (≈ 0.2 µM); MIC (M. suipneumoniae (Laber)): < 0.5 µg/mL; MIC (M. synoviae ATCC 25204): < 0.5 µg/mL; MIC (M. agalactiae ATCC 25025): < 0.5 µg/mL; MIC (M. pulmonis `JB`): < 0.5 µg/mL; MIC (M. gallisepticum S6): < 0.5 µg/mL; MIC (M. pneumoniae 429 a): 250 µg/mL (≈ 500 µM); MIC (N.gonorrhoeae; strain 72, 24 hours at 37° C., read-out: M.I.C.): 0.01 µg/mL (≈ 0.02 µM)
C/C(=C\C(=O)OCCCCCCCCC(=O)O)C[C@@H]1OC[C@H](C[C@@H]2O[C@H]2[C@@H](C)[C@H](C)O)[C@@H](O)[C@H]1O [Pseudomonic acid] |  |  |  |  |  |  |  |  |  |  |  |  |  |  |  |  |  |  |  |  | % unbound in human serum [2]: 6.8%; fraction unbound ([2]; human, serum): 0.066
